{"source": "patent US9732311B2", "about": "“Alcoholic compositions having a lowered risk of acetaldehydemia” (Deuteria Beverages, LLC, priority 2009, dated 2017)", "key": {"horse liver ALDH": {"test_system": "horse liver ALDH", "details": "literature (Feldman and Weiner 1972); cited from earlier work"}, "[1]": {"details": "oral", "experimental": "The subject was a person, 154 kg, with no known abnormalities of ethanol metabolism. Experiments were conducted after an overnight fast. 1,1-Dideuterioethanol, 99 atom % D (CDN Isotopes; Quebec, Canada) (70 mL) was diluted to 500 mL with orange juice, and the resulting beverage was consumed by the subject over the course of five minutes. The mouth and palate were rinsed with orange juice, and data points were then obtained, in triplicate, every 10 minutes with a commercial breath analyzer (AlcoHAWK™ Pro, Q3 Innovations Inc., Independence, Iowa, U.S.A.) The control experiment employed 175 mL of commercial vodka (80 proof; 40% ethanol) but was otherwise identical.\nEach data point in the FIGURE is the average of the three measurements taken at each time point."}, "sheep liver ALDH": {"test_system": "sheep liver ALDH", "details": "literature (Hart and Dickinson 1978); cited from earlier work"}}, "note": "Where two headings read alike, the source gives them in different places."}
{"smiles": "[2H]C(=O)CC", "note": "[propionaldehyde-1-d]", "values": [{"measurement": "deuterium isotope effect", "setting": "horse liver ALDH", "result": "no isotope effect"}]}
{"smiles": "[2H]C([2H])(C)O", "note": "[deuterated ethanol, 1,1-Dideuterioethanol]", "values": [{"measurement": "absorption relative to ethanol having a natural isotopic abundance", "setting": "[1]; human subject, FIG. 1", "result": "substantially retarded"}, {"measurement": "areas under the curves of blood level vs time, deuterated vs ordinary ethanol", "setting": "[1]; human subject, FIG. 1", "result": "substantially equivalent"}, {"measurement": "rate of clearance relative to ethanol having a natural isotopic abundance", "setting": "[1]; human subject, FIG. 1", "result": "reduced"}, {"measurement": "time after ingestion at which peak blood concentrations of ethanol are reached", "setting": "[1]; human subject, after overnight fast, 70 mL diluted to 500 mL with orange juice", "result": "1 to 2", "unit": "h"}, {"measurement": "reduction of peak blood concentration", "setting": "[1]; human subject, relative to non-deuterated ethanol", "result": "15-20%"}]}
{"smiles": "CCO", "note": "[ethanol, reference compound]", "values": [{"measurement": "time after ingestion at which peak blood concentrations of ethanol are reached", "setting": "[1]; human, ordinary ethanol (normally)", "result": "0.333 to 0.5", "unit": "h"}]}
{"smiles": "[2H]C(C)=O", "note": "[acetaldehyde-1-d]", "values": [{"measurement": "deuterium isotope effect", "setting": "sheep liver ALDH", "result": "no isotope effect"}]}
